Measurements: patent US5366992A, “Benzoic acid substituted derivatives having cardiovascular activity” (Italfarmaco S.p.A., priority 1990, dated 1994)
Where a name gives a salt, the structure may show the parent alone.

Experiments:
[1] = test system: noradrenaline-contracted rat aortha strip; experiment: in vitro vasorelaxing activity, noradrenaline-contracted rat aortha strip; conditions: concentration inhibiting by 50% the contraction of noradrenaline-contracted rat aortha strip
Protocol: The in vitro vasorelaxing activity of the compounds of the present invention was evaluated in the test of the noradrenaline-contracted rat aortha strip. The test was carried out according to the procedure described by K. Murakami et al., Eur. J. Pharmacol., 141, 195, 1987. The IC50 values, i.e. the concentration of active substance, expressed in mol/1, inhibiting by 50% the aortha strip contraction, were evaluated.

[2] = test system: Sprague Dawley anesthetized rats; experiment: in vivo antianginal activity, Arg-vasopressin-induced coronaric spasm (T wave increase) in anesthetized rats; design: species or system Sprague Dawley rat; conditions: 3 mg/kg through gastric probe, one hour before i.v. Arg-vasopressin (1 I.U./kg)
Protocol: In vivo antianginal activity was evaluated in Sprague Dawley anesthetized rats of 350-400 g mean weight, according to the procedure by M. Leitold et al., Arzneim. Forsch. 36, 1454, 1986. The test was carried out by intravenously administering to the animal one I.U./kg (equivalent to 3 mg/kg) of Arg-vasoprexine inducing a choronaric spasm which can be reproduced and electrocardiographically evidenced by an increase in the T wave. The compounds of the invention were administered through a gastric probe at a dose of 3 mg/kg, one hour before administering Arg-vasoprexine.The antianginal effect was expressed as percent inhibition of the increase in T wave versus controls.

Compound | IC50 [1] | % Inhibition of the increase in T waves versus controls [2]
CC(=O)Oc1cccc(C(=O)NCCO[N+](=O)[O-])c1 [Example 1, 3-Acetoxy-N-(2-nitroxyethyl)-benzamide] | 160 nM | –
CC(=O)Oc1ccccc1C(=O)OCCO[N+](=O)[O-] [8 B] | 13 nM | 61%
CC(=O)Oc1ccccc1C(=O)NCCCCCO[N+](=O)[O-] [4 B] | 110 nM | 53%
O=C(NCCO[N+](=O)[O-])c1ccccc1OC(=O)C1CSCN1 (centres unmarked) [Example 9, N-(2-Nitroxyethyl)-2-[(4-thiazolidinyl)carbonyloxy]benzamide hydrochloride] | 540 nM | –
O=C(NCCO[N+](=O)[O-])c1ccccc1O [9 A] | 160 nM | 42%
CC(=O)Oc1cccc(C(=O)NCCCCCO[N+](=O)[O-])c1 [3 B] | 1200 nM | –
CC(=O)Oc1ccc(C(=O)NCCO[N+](=O)[O-])cc1 [Example 2, 4-Acetoxy-N-(2-nitroxyethyl)-benzamide] | 2300 nM | 55%
